Key:
[1] = target: T1, Serine/threonine-protein kinase 17A (Homo sapiens) (UniProt Q9UEE5); experiment: Residual activity of STK17A at 1 uM by microplate scintillation counting
T1 sequence (whole entry): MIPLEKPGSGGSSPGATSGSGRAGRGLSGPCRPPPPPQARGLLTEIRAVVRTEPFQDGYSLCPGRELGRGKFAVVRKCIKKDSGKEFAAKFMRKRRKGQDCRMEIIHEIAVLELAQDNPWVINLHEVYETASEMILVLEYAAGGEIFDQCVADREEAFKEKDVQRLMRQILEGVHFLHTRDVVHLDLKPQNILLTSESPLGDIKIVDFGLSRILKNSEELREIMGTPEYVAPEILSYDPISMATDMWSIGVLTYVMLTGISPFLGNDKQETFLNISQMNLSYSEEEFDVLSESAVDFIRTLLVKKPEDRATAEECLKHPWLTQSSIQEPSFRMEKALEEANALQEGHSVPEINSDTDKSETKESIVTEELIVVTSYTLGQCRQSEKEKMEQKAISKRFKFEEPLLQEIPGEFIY

[2] = target: Ribosomal protein S6 kinase alpha-3 (Homo sapiens) (UniProt P51812); experiment: Residual activity of RPS6KA3 at 1 uM by microplate scintillation counting
Chain of Ribosomal protein S6 kinase alpha-3 (Homo sapiens) (P51812 whole entry): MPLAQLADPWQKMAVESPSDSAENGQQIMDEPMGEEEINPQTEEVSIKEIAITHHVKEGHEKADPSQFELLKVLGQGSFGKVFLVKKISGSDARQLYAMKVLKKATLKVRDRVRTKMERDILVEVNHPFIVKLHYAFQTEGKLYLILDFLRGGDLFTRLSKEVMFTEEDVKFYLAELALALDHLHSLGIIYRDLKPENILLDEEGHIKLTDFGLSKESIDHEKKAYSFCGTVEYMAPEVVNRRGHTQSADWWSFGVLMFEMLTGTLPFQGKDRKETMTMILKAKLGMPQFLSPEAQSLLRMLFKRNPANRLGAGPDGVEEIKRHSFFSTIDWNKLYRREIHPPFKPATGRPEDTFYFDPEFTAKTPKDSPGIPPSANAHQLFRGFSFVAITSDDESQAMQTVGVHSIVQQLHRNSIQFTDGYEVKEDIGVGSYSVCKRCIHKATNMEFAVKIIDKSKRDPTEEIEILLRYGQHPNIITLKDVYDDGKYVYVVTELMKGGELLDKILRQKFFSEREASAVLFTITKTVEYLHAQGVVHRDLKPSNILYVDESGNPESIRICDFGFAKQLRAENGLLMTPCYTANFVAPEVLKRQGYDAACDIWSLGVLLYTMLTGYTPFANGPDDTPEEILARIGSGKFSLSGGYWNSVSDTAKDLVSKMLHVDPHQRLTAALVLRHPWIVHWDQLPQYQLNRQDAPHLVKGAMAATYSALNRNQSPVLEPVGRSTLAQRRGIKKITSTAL

[3] = target: Tyrosine-protein kinase receptor UFO (Homo sapiens) (UniProt P30530); experiment: Residual activity of AXL at 10 uM by microplate scintillation counting
Chain of Tyrosine-protein kinase receptor UFO (Homo sapiens) (P30530 whole entry): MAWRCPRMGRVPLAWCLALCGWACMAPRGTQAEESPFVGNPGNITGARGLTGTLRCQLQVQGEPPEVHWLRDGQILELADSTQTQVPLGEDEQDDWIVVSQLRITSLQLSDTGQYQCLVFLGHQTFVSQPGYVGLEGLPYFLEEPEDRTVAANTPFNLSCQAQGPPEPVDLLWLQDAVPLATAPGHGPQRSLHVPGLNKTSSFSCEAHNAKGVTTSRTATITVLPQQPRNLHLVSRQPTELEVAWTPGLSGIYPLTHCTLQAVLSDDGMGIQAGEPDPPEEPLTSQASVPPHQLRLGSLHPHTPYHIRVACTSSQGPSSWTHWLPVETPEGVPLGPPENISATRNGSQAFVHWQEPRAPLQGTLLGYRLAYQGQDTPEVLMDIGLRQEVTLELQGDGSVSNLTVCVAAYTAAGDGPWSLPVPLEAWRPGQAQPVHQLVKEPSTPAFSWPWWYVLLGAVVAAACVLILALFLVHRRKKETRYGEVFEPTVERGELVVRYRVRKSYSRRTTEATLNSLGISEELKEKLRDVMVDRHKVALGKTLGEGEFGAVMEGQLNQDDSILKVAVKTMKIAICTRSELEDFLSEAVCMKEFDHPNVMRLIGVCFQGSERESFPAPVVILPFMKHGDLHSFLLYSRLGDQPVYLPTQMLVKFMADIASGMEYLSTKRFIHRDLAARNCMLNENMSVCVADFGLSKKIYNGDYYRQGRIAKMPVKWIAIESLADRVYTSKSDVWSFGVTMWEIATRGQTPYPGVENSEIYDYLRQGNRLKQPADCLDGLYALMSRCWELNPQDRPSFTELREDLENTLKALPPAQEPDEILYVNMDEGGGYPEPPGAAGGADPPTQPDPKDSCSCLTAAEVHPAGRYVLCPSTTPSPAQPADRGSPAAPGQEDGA

[4] = target: Mitogen-activated protein kinase 10 (Homo sapiens) (UniProt P53779); experiment: Residual activity of JNK3 at 0.1 uM by microplate scintillation counting
Chain of Mitogen-activated protein kinase 10 (Homo sapiens) (P53779 whole entry): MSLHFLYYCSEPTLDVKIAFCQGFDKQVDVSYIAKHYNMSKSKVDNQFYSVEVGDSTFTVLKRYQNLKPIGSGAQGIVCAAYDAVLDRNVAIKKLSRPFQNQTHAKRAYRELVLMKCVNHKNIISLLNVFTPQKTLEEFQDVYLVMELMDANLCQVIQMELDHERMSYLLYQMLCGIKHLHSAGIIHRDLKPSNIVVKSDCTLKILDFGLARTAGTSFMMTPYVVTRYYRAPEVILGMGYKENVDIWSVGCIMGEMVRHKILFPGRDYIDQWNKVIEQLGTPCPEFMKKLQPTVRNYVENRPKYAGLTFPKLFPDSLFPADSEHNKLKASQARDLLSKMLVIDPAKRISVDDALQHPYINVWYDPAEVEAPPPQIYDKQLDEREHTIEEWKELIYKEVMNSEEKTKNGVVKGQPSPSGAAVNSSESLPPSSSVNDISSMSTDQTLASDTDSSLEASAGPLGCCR

[5] = target: T2, Ephrin type-B receptor 1 (Homo sapiens) (UniProt P54762); experiment: Residual activity of EPHB1 at 1 uM by microplate scintillation counting
T2 sequence (whole entry): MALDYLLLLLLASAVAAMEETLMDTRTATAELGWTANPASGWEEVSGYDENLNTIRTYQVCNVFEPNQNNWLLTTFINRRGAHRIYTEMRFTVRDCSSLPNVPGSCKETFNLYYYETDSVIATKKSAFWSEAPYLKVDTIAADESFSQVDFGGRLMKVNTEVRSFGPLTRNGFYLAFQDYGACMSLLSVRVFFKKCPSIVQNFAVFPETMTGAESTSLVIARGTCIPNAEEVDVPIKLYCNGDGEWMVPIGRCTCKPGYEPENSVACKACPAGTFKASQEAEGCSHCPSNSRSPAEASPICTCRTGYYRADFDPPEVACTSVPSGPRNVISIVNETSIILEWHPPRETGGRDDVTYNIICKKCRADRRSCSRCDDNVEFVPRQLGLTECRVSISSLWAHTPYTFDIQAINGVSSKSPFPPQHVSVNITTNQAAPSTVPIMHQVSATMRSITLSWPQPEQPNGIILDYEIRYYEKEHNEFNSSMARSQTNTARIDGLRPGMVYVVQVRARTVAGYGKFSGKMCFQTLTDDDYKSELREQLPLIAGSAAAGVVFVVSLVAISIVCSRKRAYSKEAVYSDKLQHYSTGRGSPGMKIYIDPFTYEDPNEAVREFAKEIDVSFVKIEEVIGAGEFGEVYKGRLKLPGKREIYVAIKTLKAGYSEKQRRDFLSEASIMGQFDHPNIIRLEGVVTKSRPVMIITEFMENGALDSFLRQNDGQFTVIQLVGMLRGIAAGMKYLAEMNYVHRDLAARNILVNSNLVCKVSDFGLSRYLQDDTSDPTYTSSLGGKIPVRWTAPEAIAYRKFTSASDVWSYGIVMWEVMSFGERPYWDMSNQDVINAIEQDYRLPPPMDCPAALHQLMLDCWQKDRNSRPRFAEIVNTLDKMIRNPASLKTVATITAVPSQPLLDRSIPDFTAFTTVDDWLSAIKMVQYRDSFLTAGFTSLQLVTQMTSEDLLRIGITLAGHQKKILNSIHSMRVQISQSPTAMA

[6] = target: Mitogen-activated protein kinase 9 (Homo sapiens) (UniProt P45984); experiment: Residual activity of JNK2 at 0.1 uM by microplate scintillation counting
Chain of Mitogen-activated protein kinase 9 (Homo sapiens) (P45984 whole entry, looked up): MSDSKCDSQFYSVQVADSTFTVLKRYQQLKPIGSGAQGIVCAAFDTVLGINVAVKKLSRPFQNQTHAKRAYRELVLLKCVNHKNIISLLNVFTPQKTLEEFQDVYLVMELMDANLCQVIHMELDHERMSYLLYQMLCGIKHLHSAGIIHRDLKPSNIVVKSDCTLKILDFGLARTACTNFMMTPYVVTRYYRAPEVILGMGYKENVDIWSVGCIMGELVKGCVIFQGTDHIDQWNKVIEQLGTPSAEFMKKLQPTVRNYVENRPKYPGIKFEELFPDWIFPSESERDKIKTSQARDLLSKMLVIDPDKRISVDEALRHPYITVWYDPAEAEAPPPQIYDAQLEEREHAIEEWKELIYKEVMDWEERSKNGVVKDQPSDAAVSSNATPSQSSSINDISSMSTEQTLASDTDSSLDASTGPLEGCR

[7] = target: Ribosomal protein S6 kinase alpha-6 (Homo sapiens) (UniProt Q9UK32); experiment: Residual activity of RPS6KA6 at 10 uM by microplate scintillation counting
Chain of Ribosomal protein S6 kinase alpha-6 (Homo sapiens) (Q9UK32 whole entry): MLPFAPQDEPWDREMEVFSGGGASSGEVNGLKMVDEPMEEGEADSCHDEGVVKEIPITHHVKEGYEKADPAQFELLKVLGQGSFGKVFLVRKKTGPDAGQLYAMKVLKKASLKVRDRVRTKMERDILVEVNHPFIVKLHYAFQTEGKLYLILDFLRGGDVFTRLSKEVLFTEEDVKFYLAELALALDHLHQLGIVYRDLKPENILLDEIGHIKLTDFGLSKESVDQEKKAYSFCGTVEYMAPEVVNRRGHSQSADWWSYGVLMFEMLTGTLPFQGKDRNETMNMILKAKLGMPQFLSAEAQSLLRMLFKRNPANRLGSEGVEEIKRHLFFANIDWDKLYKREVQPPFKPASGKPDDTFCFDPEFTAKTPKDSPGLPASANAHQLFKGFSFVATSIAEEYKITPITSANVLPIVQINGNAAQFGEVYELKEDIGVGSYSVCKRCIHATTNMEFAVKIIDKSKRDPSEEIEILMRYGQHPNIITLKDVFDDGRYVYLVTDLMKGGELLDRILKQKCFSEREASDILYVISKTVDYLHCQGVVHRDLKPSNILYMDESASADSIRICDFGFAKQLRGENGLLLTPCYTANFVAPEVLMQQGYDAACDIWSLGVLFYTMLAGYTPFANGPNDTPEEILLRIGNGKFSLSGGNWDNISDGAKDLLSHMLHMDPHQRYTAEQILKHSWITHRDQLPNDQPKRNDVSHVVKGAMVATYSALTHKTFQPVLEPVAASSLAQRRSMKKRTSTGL

[8] = target: Mitogen-activated protein kinase kinase kinase 8 (Homo sapiens) (UniProt P41279); experiment: Residual activity of COT at 10 uM by microplate scintillation counting
Chain of Mitogen-activated protein kinase kinase kinase 8 (Homo sapiens) (P41279 whole entry): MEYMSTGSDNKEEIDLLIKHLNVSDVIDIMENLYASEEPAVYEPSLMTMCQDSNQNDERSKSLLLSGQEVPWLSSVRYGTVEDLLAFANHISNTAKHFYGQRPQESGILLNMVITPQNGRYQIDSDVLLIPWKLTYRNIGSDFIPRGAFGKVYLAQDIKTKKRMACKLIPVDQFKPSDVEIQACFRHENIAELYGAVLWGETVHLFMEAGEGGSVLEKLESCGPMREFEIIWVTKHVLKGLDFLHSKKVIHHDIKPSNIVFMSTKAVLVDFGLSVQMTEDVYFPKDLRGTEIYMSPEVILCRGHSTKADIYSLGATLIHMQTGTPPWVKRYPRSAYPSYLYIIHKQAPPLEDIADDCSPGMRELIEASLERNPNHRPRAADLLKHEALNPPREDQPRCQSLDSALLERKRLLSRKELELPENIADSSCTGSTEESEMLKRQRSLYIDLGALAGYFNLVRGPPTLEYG

[9] = target: Insulin receptor (Homo sapiens) (UniProt P06213); experiment: Residual activity of INSR at 0.1 uM by microplate scintillation counting
[10] = target: Casein kinase II subunit alpha' (Homo sapiens) (UniProt P19784); experiment: Residual activity of CK2alpha2 at 0.1 uM by microplate scintillation counting
Chain of Casein kinase II subunit alpha' (Homo sapiens) (P19784 whole entry, looked up): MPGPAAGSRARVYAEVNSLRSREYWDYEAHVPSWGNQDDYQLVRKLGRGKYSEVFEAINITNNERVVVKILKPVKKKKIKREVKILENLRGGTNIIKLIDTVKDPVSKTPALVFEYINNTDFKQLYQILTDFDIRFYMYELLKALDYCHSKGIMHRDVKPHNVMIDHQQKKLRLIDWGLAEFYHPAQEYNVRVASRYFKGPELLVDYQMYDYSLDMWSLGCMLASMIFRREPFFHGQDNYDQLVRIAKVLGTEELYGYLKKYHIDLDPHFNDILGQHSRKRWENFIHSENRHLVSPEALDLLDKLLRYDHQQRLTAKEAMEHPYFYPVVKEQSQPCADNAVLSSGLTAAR

[11] = target: CDK1/Cyclin E (Homo sapiens) (UniProt P06493+P24864); experiment: Residual activity of CDK1/Cyclin E at 10 uM by microplate scintillation counting; type: protein-complex assay
Chain of CDK1/Cyclin E (Homo sapiens) (P06493 whole entry, looked up): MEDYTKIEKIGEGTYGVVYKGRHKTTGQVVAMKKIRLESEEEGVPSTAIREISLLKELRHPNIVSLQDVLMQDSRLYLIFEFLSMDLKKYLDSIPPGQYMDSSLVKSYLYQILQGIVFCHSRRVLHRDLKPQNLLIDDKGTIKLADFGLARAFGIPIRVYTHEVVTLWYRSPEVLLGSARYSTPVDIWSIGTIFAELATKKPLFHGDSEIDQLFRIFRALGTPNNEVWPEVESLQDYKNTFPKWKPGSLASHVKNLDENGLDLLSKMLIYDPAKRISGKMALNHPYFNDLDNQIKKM
Chain of CDK1/Cyclin E (Homo sapiens) (P24864 whole entry, looked up): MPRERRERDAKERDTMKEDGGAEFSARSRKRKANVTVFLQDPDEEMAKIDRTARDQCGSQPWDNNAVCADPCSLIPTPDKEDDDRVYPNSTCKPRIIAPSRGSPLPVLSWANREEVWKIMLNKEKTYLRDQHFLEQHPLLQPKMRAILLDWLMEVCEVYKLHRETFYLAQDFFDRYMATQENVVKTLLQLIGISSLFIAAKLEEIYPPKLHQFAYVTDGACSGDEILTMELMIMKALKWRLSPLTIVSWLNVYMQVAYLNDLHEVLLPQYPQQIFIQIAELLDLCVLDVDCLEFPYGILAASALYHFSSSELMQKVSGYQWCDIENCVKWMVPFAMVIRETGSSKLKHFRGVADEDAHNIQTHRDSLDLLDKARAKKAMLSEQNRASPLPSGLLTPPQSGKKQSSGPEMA

Row | residual activity [1] | residual activity [2] | residual activity [3] | residual activity [4] | residual activity [5] | residual activity [6] | residual activity [7] | residual activity [8] | residual activity [9] | residual activity [10] | residual activity [11] | Structure (SMILES)
1 | 67% | 93% | 57% | 100% | 102% | 89% | 50% | 96% | 96% | 91% | 93% | COc1cc2c(Oc3ccc(-c4nc5ccccc5s4)cc3)ncnc2cc1OCCCN1CCCC1
2 | 62% | 85% | 125% | 113% | 124% | 108% | 35% | 115% | 100% | 98% | 108% | COc1cc2c(Oc3ccc(-c4nc5ccccc5s4)cc3)ncnc2cc1OCCCN1CCN(C)CC1
3 | 90% | 95% | 54% | 87% | 134% | 103% | 32% | 94% | 96% | 88% | 107% | COc1cc2c(Oc3ccc(-c4nc5ccccc5s4)cc3F)ncnc2cc1OCCCN1CCN(C)CC1

— ChEMBL document CHEMBL1152560, “Substituted 2-arylbenzothiazoles as kinase inhibitors: hit-to-lead optimization” (Bioorg Med Chem, 2009)
